This assay concerns gene expression in tert keratinocytes. Nature of the assay: Signature free connectivity mapping (C-map) similarity to CAST. Conditions: Concentration Tested 0.01% (wt. %); Fisher Discriminant Analysis. From the text: Signature Free Method of Querying Perturbagens Using Connectivity Mapping to Test Similarity Among Different Varieties of Perturbagens
The signature-free query method describes methodologies for identifying gene expression similarities among different perturbagens, such as cosmetic actives and/or natural extracts in an already existing tert connectivity map database. “Connectivity map” and “C-map” refer broadly to devices, systems, articles of manufacture, and methodologies for identifying relationships between cellular phenotypes or cosmetic conditions, gene expression, and perturbagens, such as cosmetic actives. […]
The tert C-map database consists of normalized gene expression data of approximately 3200 perturbagens. […] For each individual perturbagen, the output of the normalization includes an expression value for each probe analyzed in the gene expression profiling experiment. […]
The data matrix is analyzed using multivariate statistical analysis. Though described herein with reference to regularized Fisher Discriminant Analysis using a kernel version of the projection matrix, those of ordinary skill in the art will readily appreciate that other forms of multivariate statistical analysis may be employed in other embodiments. […]

Regarding `C[C@H]1[C@H](C)CC[C@]2(C(=O)O)CC[C@]3(C)C(=CC[C@@H]4[C@@]5(C)C[C@@H](O)[C@H](O)[C@@](C)(CO)[C@@H]5[C@H](O)C[C@]43C)[C@H]12` [Madecassic acid], the “Similarity (distance) Score from CAST” value was found to be 0.770.
Turning to Madecassoside, the “Similarity (distance) Score from CAST” value is recorded as −0.031.
